Values joined by “and” are separate entries in the source; they are usually repeats but may differ in a detail not shown here. Equal entries are not always repeated.
Tested on: WM3248 melanoma cells, 486 antibodies
Experiment: Reverse phase protein arrays (RPPA);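 as to RPPA AceCS1.R.V: ratio of treated to vehicle (0 µM) normalized linear protein signal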;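 as to RPPA Akt1 pS473.R.V: ratio of treated to vehicle (0 µM) normalized linear protein signal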;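 as to RPPA Akt1.R.V: ratio of treated to vehicle (0 µM) normalized linear protein signal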;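 as to RPPA Ambra1 pS52.R.C: ratio of treated to vehicle (0 µM) normalized linear protein signal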;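 as to RPPA Atg5.R.C: ratio of treated to vehicle (0 µM) normalized linear protein signal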;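 as to RPPA Bim.R.V: ratio of treated to vehicle (0 µM) normalized linear protein signal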
Assay type: cell-based, Human
Conditions: 5 uM
Description: Pellets were snap frozen in liquid nitrogen and shipped to MD Anderson Cancer Center core RPPA facility for RPPA analysis (Table S5). Three biological replicates for each sample were generated.
Nomenclatures on the RPPA heatmaps: name_of_antibody.species_of_antibody.status_of_antibody. V - antibody validated; C - validation of antibody in progress; Q - antibody nonspecific; E – under evaluation; antibodies raised in M - mouse, G - goat, R - rabbit, or T - rat.

Compound: CN(C)c1cccc(Nc2cc(-c3ccccc3)nc(C3CCNCC3)n2)c1 [ARN22089, N1,N1-dimethyl-N3-(6-phenyl-2-(piperidin-4-yl)pyrimidin-4-yl)benzene-1,3-diamine]
- RPPA AceCS1.R.V (B.1): 1.006
- RPPA Akt1.R.V (B.1): 0.910
- RPPA Akt1_pS473.R.V (B.1): 0.894
- RPPA Akt2.R.V (B.1): 0.975
- RPPA Akt2_pS474.R.C (B.1): 1.016
- RPPA Akt_pS473.R.V (B.1): 0.899
- RPPA Akt_pT308.R.V (B.1): 0.827
- RPPA Ambra1_pS52.R.C (B.1): 0.978
- RPPA Annexin.I.M.V (B.1): 1.021
- RPPA Atg3.R.V (B.1): 0.935
- RPPA Atg4B.R.C (B.1): 0.930
- RPPA Atg5.R.C (B.1): 0.974
- RPPA Atg7.R.V (B.1): 0.761
- RPPA Aurora.A.R.C (B.1): 1.245
- RPPA Aurora.ABC_pT288_pT232_pT198.R.C (B.1): 0.869
- RPPA Axl.R.V (B.1): 0.622
- RPPA B7.H3.R.C (B.1): 0.992
- RPPA B.Raf.R.C (B.1): 0.902
- RPPA BAP1.M.V (B.1): 0.996
- RPPA BCL2A1.R.V (B.1): 0.908
- RPPA BMK1.Erk5_pT218_Y220.R.V (B.1): 1.119
- RPPA BRCA1.M.C (B.1): 0.934
- RPPA BRD4.R.V (B.1): 1.027
- RPPA Bad_pS112.R.V (B.1): 0.939
- RPPA Bak.R.C (B.1): 0.987
- RPPA Bax.R.V (B.1): 0.996
- RPPA Bcl.xL.R.V (B.1): 1.022
- RPPA Beclin.R.C (B.1): 1.111
- RPPA BiP.GRP78.M.C (B.1): 0.998
- RPPA Bid.R.C (B.1): 0.999
- RPPA Bim.R.V (B.1): 0.906
- RPPA X4E.BP1.R.V (B.1): 0.997
- RPPA X4E.BP1_pS65.R.V (B.1): 1.205
- RPPA X4E.BP1_pT37_T46.R.V (B.1): 1.170
- RPPA X14.3.3.zeta.R.V (B.1): 1.080
- RPPA X14.3.3βR.V (B.1): 1.052
- RPPA X53BP1.R.V (B.1): 0.907
- RPPA b.Catenin.R.V (B.1): 1.025
- RPPA b.Catenin_pT41_S45.R.V (B.1): 0.975
- RPPA c.Abl.R.V (B.1): 0.965
- RPPA c.Abl_pY412.R.C (B.1): 0.885
- RPPA c.IAP2.R.C (B.1): 1.018
- RPPA PREX1.R.V Average (average of 3): 1.056
- RPPA PYGB.R.V Average (average of 3): 0.877
- RPPA PYGM.M.C Average (average of 3): 0.831
- RPPA Puma.R.C Average (average of 3): 0.937
- RPPA RBM15.R.V Average (average of 3): 0.979
- RPPA RIP3.R.C Average (average of 3): 1.059
- RPPA RIP.R.C Average (average of 3): 0.875
- RPPA RPA32.R.V Average (average of 3): 0.880
- RPPA RPA32_pS4_S8.R.C Average (average of 3): 0.828
- RPPA RRM1.R.C Average (average of 3): 0.995
- RPPA RRM2.R.C Average (average of 3): 1.008
- RPPA RSK1.R.V Average (average of 3): 0.889
- RPPA RSK.R.C Average (average of 3): 1.023
- RPPA Rab25.R.V Average (average of 3): 1.051
- RPPA Rad17_pS645.R.V Average (average of 3): 1.079
- RPPA Rad23A.R.C Average (average of 3): 0.869
- RPPA Rad50.R.V Average (average of 3): 0.989
- RPPA Rad51.R.C Average (average of 3): 1.005
- RPPA Raptor.R.V Average (average of 3): 1.028
- RPPA Rb_pS807_S811.R.V Average (average of 3): 1.059
- RPPA Rheb.M.C Average (average of 3): 0.971
- RPPA Rictor.R.C Average (average of 3): 1.019
- RPPA Rictor_pT1135.R.V Average (average of 3): 1.106
- RPPA S6_pS235_S236.R.V Average (average of 3): 1.300
- RPPA S6_pS240_S244.R.V Average (average of 3): 1.738
- RPPA SCD.M.V Average (average of 3): 1.005
- RPPA SDHA.R.V Average (average of 3): 1.077
- RPPA SF2.R.V Average (average of 3): 1.028
- RPPA SFRP1.R.V Average (average of 3): 0.962
- RPPA SGK1.R.V Average (average of 3): 1.098
- RPPA SGK3.R.V Average (average of 3): 0.993
- RPPA SHP2.R.V Average (average of 3): 0.993
- RPPA SHP.2_pY542.R.C Average (average of 3): 0.941
- RPPA SIRPαR.V Average (average of 3): 0.994
- RPPA SLC1A5.R.C Average (average of 3): 0.898
- RPPA SOD1.M.V Average (average of 3): 1.002
- RPPA SOD2.R.V Average (average of 3): 1.033
- RPPA SOX7.R.V Average (average of 3): 0.921
- RPPA STING.R.V Average (average of 3): 1.006
- RPPA Shc_pY317.R.C Average (average of 3): 0.879
- RPPA Slfn11.G.C Average (average of 3): 0.785
- RPPA Smac.M.Q Average (average of 3): 0.922
- RPPA Smad1.R.V Average (average of 3): 1.113
- RPPA Smad3.R.V Average (average of 3): 0.963
- RPPA Smad4.R.V Average (average of 3): 1.032
- RPPA Snail.M.Q Average (average of 3): 1.012
- RPPA Sox2.R.V Average (average of 3): 0.986
- RPPA Sox17.R.V Average (average of 3): 0.955
- RPPA Src_pY416.R.V Average (average of 3): 0.979
- RPPA Src_pY527.R.V Average (average of 3): 1.190
- RPPA Stat1_pY701.R.V Average (average of 3): 0.966
- RPPA Stat3.R.C Average (average of 3): 1.005
- RPPA Stat3_pY705.R.C Average (average of 3): 0.914
- RPPA Stat5a.R.V Average (average of 3): 1.163
- RPPA Stathmin.1.R.V Average (average of 3): 0.991
- RPPA Syk.M.V Average (average of 3): 0.987
- RPPA Synaptophysin.R.C Average (average of 3): 1.017
- RPPA TAZ.R.V Average (average of 3): 0.956
- RPPA TEAD.R.C Average (average of 3): 1.012
- RPPA TFAM.R.V Average (average of 3): 1.014
- RPPA TFRC.R.V Average (average of 3): 0.971
- RPPA TIGAR.R.V Average (average of 3): 1.035
- RPPA TRAP1.M.V Average (average of 3): 0.973
- RPPA TRIM24.R.C Average (average of 3): 0.998
- RPPA TRIP13.R.V Average (average of 3): 0.948
- RPPA Tau.M.C Average (average of 3): 0.996
- RPPA Transglutaminase.M.V Average (average of 3): 0.913
- RPPA signal, antibody TSC1.R.C, Average (average of 3 replicates): 1.118
- RPPA signal, antibody TTF1.R.V, Average (average of 3 replicates): 0.922
- RPPA signal, antibody TUFM.R.V, Average (average of 3 replicates): 1.149
- RPPA signal, antibody Tuberin.R.V, Average (average of 3 replicates): 1.289
- RPPA signal, antibody Tuberin_pT1462.R.V, Average (average of 3 replicates): 0.994
- RPPA signal, antibody Twist.M.C, Average (average of 3 replicates): 0.991
- RPPA signal, antibody Tyro3.R.V, Average (average of 3 replicates): 0.915
- RPPA signal, antibody UBAC1.R.V, Average (average of 3 replicates): 0.933
- RPPA signal, antibody UBQLN4.M.C, Average (average of 3 replicates): 1.031
- RPPA signal, antibody UGT1A.M.V, Average (average of 3 replicates): 0.995
- RPPA signal, antibody ULK1_pS757.R.C, Average (average of 3 replicates): 1.103
- RPPA signal, antibody UQCRC2.M.C, Average (average of 3 replicates): 0.845
- RPPA signal, antibody UVRAG.R.C, Average (average of 3 replicates): 1.060
- RPPA signal, antibody VASP.R.V, Average (average of 3 replicates): 1.009
- RPPA signal, antibody VEGFR.2_pY1175.R.C, Average (average of 3 replicates): 0.987
- RPPA signal, antibody VHL.EPPK1.M.C, Average (average of 3 replicates): 0.993
- RPPA signal, antibody VHL.R.C, Average (average of 3 replicates): 0.983
- RPPA signal, antibody Vinculin.M.V, Average (average of 3 replicates): 0.997
- RPPA signal, antibody WIPI1.R.C, Average (average of 3 replicates): 0.904
- RPPA signal, antibody WTAP.R.V, Average (average of 3 replicates): 0.916
- RPPA signal, antibody Wee1.R.C, Average (average of 3 replicates): 1.196
- RPPA signal, antibody Wee1_pS642.R.C, Average (average of 3 replicates): 1.114
- RPPA signal, antibody XBP.1.G.C, Average (average of 3 replicates): 0.890
- RPPA signal, antibody XPA.M.V, Average (average of 3 replicates): 1.012
- RPPA signal, antibody XPF.R.C, Average (average of 3 replicates): 1.010
- RPPA signal, antibody XRCC1.R.C, Average (average of 3 replicates): 0.941
- RPPA signal, antibody YAP.R.C, Average (average of 3 replicates): 1.005
- RPPA signal, antibody YAP_pS127.R.V, Average (average of 3 replicates): 0.945
- RPPA signal, antibody YB1_pS102.R.V, Average (average of 3 replicates): 0.981
- RPPA signal, antibody YES1.R.V, Average (average of 3 replicates): 0.965
- RPPA signal, antibody YTHDF2.R.V, Average (average of 3 replicates): 0.921
- RPPA signal, antibody YTHDF3.R.C, Average (average of 3 replicates): 0.920
- RPPA signal, antibody ZAP.70.R.V, Average (average of 3 replicates): 1.002
- RPPA signal, antibody ZEB1.R.V, Average (average of 3 replicates): 0.953
- RPPA signal, antibody TSC1.R.C (individual replicates): 1.023 and 1.362
- RPPA signal, antibody TTF1.R.V (individual replicates): 0.931 and 1.030 and 0.806
- RPPA signal, antibody TUFM.R.V (individual replicates): 1.892 and 0.802 and 0.754
- RPPA signal, antibody Tuberin.R.V (individual replicates): 0.956 and 1.663 and 1.249
- RPPA signal, antibody Tuberin_pT1462.R.V (individual replicates): 0.926 and 1.194 and 0.864
- RPPA signal, antibody Twist.M.C (individual replicates): 1.006 and 0.964 and 1.005
- RPPA signal, antibody Tyro3.R.V (individual replicates): 1.127 and 0.928 and 0.691
- RPPA signal, antibody U.Histone.H2B.R.C (individual replicates): 0.941
- RPPA signal, antibody UBAC1.R.V (individual replicates): 0.942 and 1.076 and 0.780
- RPPA signal, antibody UBQLN4.M.C (individual replicates): 0.956 and 1.187
- RPPA signal, antibody UGT1A.M.V (individual replicates): 1.021 and 0.968 and 0.996
- RPPA signal, antibody ULK1_pS757.R.C (individual replicates): 1.126
- RPPA signal, antibody UQCRC2.M.C (individual replicates): 0.997 and 0.500
- RPPA signal, antibody UVRAG.R.C (individual replicates): 0.983 and 1.130
- RPPA signal, antibody VASP.R.V (individual replicates): 0.982 and 1.010
- RPPA signal, antibody VAV1.R.C (individual replicates): 0.910 and 1.057 and 1.165
- RPPA signal, antibody VEGFR.2.R.V (individual replicates): 0.908 and 1.050 and 1.150
- RPPA signal, antibody VEGFR.2_pY1175.R.C (individual replicates): 0.907 and 1.020
- RPPA signal, antibody VHL.EPPK1.M.C (individual replicates): 0.920
- RPPA signal, antibody VHL.R.C (individual replicates): 1.080 and 0.894 and 0.975

— publication PMC9127750, “Structure-based design of CDC42 effector interaction inhibitors for the treatment of cancer” (Cell reports, 2022)
